According to ChEMBL document CHEMBL3259582, “Structure-activity relationship-guided development of retinoic acid receptor-related orphan receptor gamma (RORγ)-selective inverse agonists with a phenanthridin-6(5H)-one skeleton from a liver X receptor ligand” (Bioorg Med Chem, 2014):

Legend:
[1] = biological target: T1, Nuclear receptor ROR-alpha (Homo sapiens, UniProt P35398); assay: Inverse agonist activity at human ROR-alpha1 expressed in HEK293 cells after 16 hrs by luciferase reporter gene assay; type: cell-based
T1 sequence (P35398 whole entry): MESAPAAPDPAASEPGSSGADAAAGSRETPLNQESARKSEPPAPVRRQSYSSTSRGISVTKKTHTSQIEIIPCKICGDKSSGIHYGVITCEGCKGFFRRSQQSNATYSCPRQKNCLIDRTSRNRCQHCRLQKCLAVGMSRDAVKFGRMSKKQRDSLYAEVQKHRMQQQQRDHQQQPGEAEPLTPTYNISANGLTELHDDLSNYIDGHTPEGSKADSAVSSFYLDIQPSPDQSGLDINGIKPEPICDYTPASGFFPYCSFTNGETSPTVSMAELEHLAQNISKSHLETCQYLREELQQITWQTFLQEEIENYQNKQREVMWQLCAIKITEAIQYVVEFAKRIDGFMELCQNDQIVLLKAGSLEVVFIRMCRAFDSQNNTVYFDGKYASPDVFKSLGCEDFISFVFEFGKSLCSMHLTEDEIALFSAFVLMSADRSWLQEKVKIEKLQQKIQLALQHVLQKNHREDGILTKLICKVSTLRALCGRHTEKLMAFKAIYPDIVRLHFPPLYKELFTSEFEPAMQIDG

[2] = biological target: T2, Nuclear receptor ROR-beta (Homo sapiens, UniProt Q92753); assay: Inverse agonist activity at human ROR-beta expressed in HEK293 cells after 16 hrs by luciferase reporter gene assay; type: cell-based
T2 sequence (Q92753 whole entry): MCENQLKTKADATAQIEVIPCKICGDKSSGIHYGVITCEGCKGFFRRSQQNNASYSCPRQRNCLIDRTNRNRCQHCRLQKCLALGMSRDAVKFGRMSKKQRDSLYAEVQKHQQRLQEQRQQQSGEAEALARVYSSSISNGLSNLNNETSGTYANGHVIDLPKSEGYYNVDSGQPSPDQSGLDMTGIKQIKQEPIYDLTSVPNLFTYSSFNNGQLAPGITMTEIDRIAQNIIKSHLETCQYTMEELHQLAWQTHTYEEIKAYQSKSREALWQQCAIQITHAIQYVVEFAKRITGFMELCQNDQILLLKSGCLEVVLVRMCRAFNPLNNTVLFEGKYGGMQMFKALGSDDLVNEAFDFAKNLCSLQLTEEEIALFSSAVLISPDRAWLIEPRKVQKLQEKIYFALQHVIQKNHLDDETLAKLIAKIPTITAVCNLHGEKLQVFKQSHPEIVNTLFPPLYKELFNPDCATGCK

[3] = biological target: T3, Nuclear receptor ROR-gamma (Homo sapiens, UniProt P51449); assay: Inverse agonist activity at human ROR-gamma1 expressed in HEK293 cells after 16 hrs by luciferase reporter gene assay; type: cell-based
T3 sequence (P51449 whole entry): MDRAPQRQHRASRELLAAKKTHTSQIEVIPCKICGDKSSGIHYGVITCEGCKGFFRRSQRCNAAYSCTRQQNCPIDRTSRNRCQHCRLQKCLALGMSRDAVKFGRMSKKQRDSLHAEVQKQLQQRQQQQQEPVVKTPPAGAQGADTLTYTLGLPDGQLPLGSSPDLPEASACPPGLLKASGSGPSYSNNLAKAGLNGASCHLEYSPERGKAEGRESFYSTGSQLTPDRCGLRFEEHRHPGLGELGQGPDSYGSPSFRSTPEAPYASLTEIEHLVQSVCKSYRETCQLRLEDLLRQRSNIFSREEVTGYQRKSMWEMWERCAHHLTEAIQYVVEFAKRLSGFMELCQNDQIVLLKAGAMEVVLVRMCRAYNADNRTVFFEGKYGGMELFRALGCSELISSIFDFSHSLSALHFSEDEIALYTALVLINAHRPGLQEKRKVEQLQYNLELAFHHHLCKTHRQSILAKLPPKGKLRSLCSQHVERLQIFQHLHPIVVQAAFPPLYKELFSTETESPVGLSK

HEK293 = assay: Cytotoxicity against HEK293 cells; type: cell-based; details: human
[4] = biological target: T4, Oxysterols receptor LXR-alpha (Homo sapiens, UniProt Q13133); assay: Agonist activity at human LXR-alpha expressed in HEK293 cells after 16 hrs by luciferase reporter gene assay
T4 sequence (Q13133 whole entry): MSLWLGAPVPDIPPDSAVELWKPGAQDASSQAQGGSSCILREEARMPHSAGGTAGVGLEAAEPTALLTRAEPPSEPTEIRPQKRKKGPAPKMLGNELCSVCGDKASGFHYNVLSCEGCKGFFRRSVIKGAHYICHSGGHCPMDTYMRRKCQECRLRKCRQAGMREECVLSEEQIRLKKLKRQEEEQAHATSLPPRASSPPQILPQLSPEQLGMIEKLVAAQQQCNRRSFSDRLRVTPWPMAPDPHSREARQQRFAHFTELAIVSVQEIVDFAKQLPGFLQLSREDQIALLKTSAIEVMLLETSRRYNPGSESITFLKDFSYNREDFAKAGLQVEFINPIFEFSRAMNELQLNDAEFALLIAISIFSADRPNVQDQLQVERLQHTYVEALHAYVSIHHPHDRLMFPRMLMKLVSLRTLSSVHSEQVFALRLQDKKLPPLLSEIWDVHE

[5] = biological target: T5, Oxysterols receptor LXR-beta (Homo sapiens, UniProt P55055); assay: Agonist activity at human LXR-beta expressed in HEK293 cells after 16 hrs by luciferase reporter gene assay
T5 sequence (P55055 whole entry): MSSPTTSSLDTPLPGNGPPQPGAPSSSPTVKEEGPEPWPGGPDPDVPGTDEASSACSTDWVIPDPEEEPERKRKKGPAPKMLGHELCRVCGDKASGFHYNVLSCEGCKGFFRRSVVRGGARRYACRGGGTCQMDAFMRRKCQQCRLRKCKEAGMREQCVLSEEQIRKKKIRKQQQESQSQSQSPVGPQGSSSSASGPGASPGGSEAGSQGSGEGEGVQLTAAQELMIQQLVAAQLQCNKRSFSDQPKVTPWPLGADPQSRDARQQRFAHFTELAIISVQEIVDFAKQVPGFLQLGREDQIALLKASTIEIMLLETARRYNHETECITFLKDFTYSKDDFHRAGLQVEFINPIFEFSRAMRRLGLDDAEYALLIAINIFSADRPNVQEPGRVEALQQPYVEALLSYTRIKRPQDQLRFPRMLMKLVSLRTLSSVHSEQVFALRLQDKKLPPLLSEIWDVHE

[6] = biological target: T5, Oxysterols receptor LXR-beta; assay: Antagonist activity at human LXR-beta expressed in HEK293 cells assessed as inhibition of T0901317-induced effect after 16 hrs by luciferase reporter gene assay; type: cell-based
[7] = biological target: T4, Oxysterols receptor LXR-alpha; assay: Antagonist activity at human LXR-alpha expressed in HEK293 cells assessed as inhibition of T0901317-induced effect after 16 hrs by luciferase reporter gene assay; type: cell-based
[8] = biological target: T4, Oxysterols receptor LXR-alpha; assay: Antagonist activity at human LXR-alpha expressed in HEK293 cells after 16 hrs by luciferase reporter gene assay; type: cell-based
[9] = biological target: T5, Oxysterols receptor LXR-beta; assay: Antagonist activity at human LXR-beta expressed in HEK293 cells after 16 hrs by luciferase reporter gene assay; type: cell-based

CCCCn1c(=O)c2ccccc2c2cc(CO)ccc21
IC50 ([1]; read-out: IC50): > 20 µM
IC50 ([2]; read-out: IC50): > 20 µM
IC50 ([3]; read-out: IC50): > 20 µM

CCCCn1c(=O)c2ccccc2c2cc(C(C)(C)C)ccc21
IC50 ([1]; read-out: IC50): 11.8 µM
IC50 ([2]; read-out: IC50): 12.8 µM
IC50 ([3]; read-out: IC50): 10.4 µM

CCCCn1c(=O)c2ccccc2c2cc(C(O)(C(F)(F)F)C(F)(F)F)ccc21
IC50 ([1]; read-out: IC50): 9.8 µM
IC50 ([2]; read-out: IC50): 6.5 µM
IC50 ([3]; read-out: IC50): 3.9 µM

CCCCCCn1c(=O)c2ccccc2c2cc(C(O)(C(F)(F)F)C(F)(F)F)ccc21
IC50 ([1]; read-out: IC50): 7.6 µM
IC50 ([2]; read-out: IC50): 5.4 µM
IC50 ([3]; read-out: IC50): 4.7 µM

CCCCn1c(=O)c2ccccc2c2cc(CC)ccc21
IC50 ([1]; read-out: IC50): 9 µM
IC50 ([2]; read-out: IC50): 7.9 µM
IC50 ([3]; read-out: IC50): 9.2 µM

CCCCn1c(=O)c2ccccc2c2ccccc21
IC50 ([1]; read-out: IC50): 10.2 µM
IC50 ([2]; read-out: IC50): 13.4 µM
IC50 ([3]; read-out: IC50): 14.5 µM

CCCCn1c(=O)c2ccccc2c2cc(C)ccc21
IC50 ([1]; read-out: IC50): 17.6 µM
IC50 ([2]; read-out: IC50): 17.1 µM
IC50 ([3]; read-out: IC50): 16.8 µM

CCCCCCCCCn1c(=O)c2ccccc2c2cc(C(O)(C(F)(F)F)C(F)(F)F)ccc21
IC50 ([1]; read-out: IC50): > 20 µM
IC50 ([2]; read-out: IC50): > 20 µM
IC50 ([3]; read-out: IC50): > 20 µM

CCn1c(=O)c2ccccc2c2cc(C(O)(C(F)(F)F)C(F)(F)F)ccc21
IC50 ([1]; read-out: IC50): > 20 µM
IC50 ([2]; read-out: IC50): > 20 µM
IC50 ([3]; read-out: IC50): > 20 µM

CCCCn1c(=O)c2c(OC)cccc2c2cc(C(O)(C(F)(F)F)C(F)(F)F)ccc21
Activity (HEK293): Toxic

CCCCn1c(=O)c2ccccc2c2cc(C(O)(C(F)(F)F)C(F)(F)F)c(OC)cc21
IC50 ([1]; read-out: IC50): 7.8 µM
IC50 ([2]; read-out: IC50): 10.9 µM
IC50 ([3]; read-out: IC50): 9.2 µM

CCCCn1c(=O)c2ccccc2c2cc(C(O)(C(F)(F)F)C(F)(F)F)cc(OC)c21
IC50 ([1]; read-out: IC50): > 10 µM
IC50 ([2]; read-out: IC50): > 10 µM
IC50 ([3]; read-out: IC50): > 10 µM

CCCCn1c(=O)c2cc(OC)ccc2c2cc(C(O)(C(F)(F)F)C(F)(F)F)ccc21
Activity (HEK293): Toxic

CCCCn1c(=O)c2ccc(OC)cc2c2cc(C(O)(C(F)(F)F)C(F)(F)F)ccc21
IC50 ([1]; read-out: IC50): 5.3 µM
IC50 ([2]; read-out: IC50): 7.7 µM
IC50 ([3]; read-out: IC50): 1.1 µM

CCCCn1c(=O)c2cccc(OC)c2c2cc(C(O)(C(F)(F)F)C(F)(F)F)ccc21
IC50 ([1]; read-out: IC50): 9.1 µM
IC50 ([2]; read-out: IC50): 7.5 µM
IC50 ([3]; read-out: IC50): 5.7 µM

Cn1c(=O)c2ccccc2c2cc(C(O)(C(F)(F)F)C(F)(F)F)ccc21
IC50 ([1]; read-out: IC50): > 20 µM
IC50 ([2]; read-out: IC50): > 20 µM
IC50 ([3]; read-out: IC50): > 20 µM

CC(=O)Nc1nc(C)c(S(=O)(=O)Nc2ccc(C(O)(C(F)(F)F)C(F)(F)F)cc2)s1
EC50 [4]: Not Active
EC50 [5]: Not Active
IC50 ([6]; hek293): Not Active
IC50 ([7]; hek293): Not Active

O=c1[nH]c2ccc(C(O)(C(F)(F)F)C(F)(F)F)cc2c2ccccc12
IC50 ([1]; read-out: IC50): > 20 µM
IC50 ([2]; read-out: IC50): > 20 µM
IC50 ([3]; read-out: IC50): > 20 µM

CCCn1c(=O)c2ccccc2c2cc(C(O)(C(F)(F)F)C(F)(F)F)ccc21
IC50 ([1]; read-out: IC50): 10.8 µM
IC50 ([2]; read-out: IC50): 8.2 µM
IC50 ([3]; read-out: IC50): 4.2 µM

CCCCCCCCCCCCc1ccc2c(c1)c1ccccc1c(=O)n2CCCC
IC50 ([1]; hek293): Not Active
IC50 ([2]; hek293): Not Active
IC50 ([3]; hek293): Not Active

CCCCn1c(=O)c2ccc(Cl)cc2c2cc(C(O)(C(F)(F)F)C(F)(F)F)ccc21
EC50 [4]: Not Active
EC50 [5]: Not Active
IC50 ([6]; read-out: IC50): 0.68 µM
IC50 ([7]; read-out: IC50): > 3 µM

O=S(=O)(c1ccccc1)N(CC(F)(F)F)c1ccc(C(O)(C(F)(F)F)C(F)(F)F)cc1 [T091317]
IC50 [8]: Not Active
IC50 [9]: Not Active
IC50 ([2]; hek293): Not Active
